Like-named read-outs stand apart in the source and are kept apart here.
Experiments:
[1] = tested on: patients with primary aldosteronism
Description: (§1) A double-blind, randomized, Phase 2 trial was conducted between November 2019 and June 2022 at 11 centres in Italy, Switzerland and the Netherlands (NCT04007406). […] Patients requiring fixed-dose antihypertensive therapy continued treatment throughout the study; steroid therapies, β-adrenergic and renin-angiotensin-aldosterone system blockers were not permitted. At 14-day intervals, office blood pressures were recorded and blood samples were taken for measurement of steroid and peptide hormones and electrolytes at a central laboratory.
The urinary content of tetrahydroaldosterone (THA) was measured centrally by gas chromatography-coupled mass spectrometry (GC-MS).

[2] = tested on: patients with primary aldosteronism; conditions: for plasma potassium concentration, mean: baseline potassium <3.6 mmol/L
Description: as §1

[3] = 4 mg once daily, n=10, Day 1 (baseline)
[4] = 8 mg once daily, n=12, Day 1 (baseline)
[5] = 12 mg once daily, n=13, Day 1 (baseline)
[6] = 4 mg once daily, n=10, Day 70 (after placebo withdrawal)
[7] = 8 mg once daily, n=11, Day 1 (baseline)
[8] = 8 mg once daily, n=11, Day 70 (after placebo withdrawal)

Substance: (R)-(+)-5-(p-cyanophenyl)-5,6,7,8-tetrahydroimidazolium[1,5-a]pyridine dihydrogen phosphate [dexfadrostat phosphate]
- change in urine THA content from baseline to Day 56, mean ([1]; 4 mg once daily, n=10): −66.90 24 μg/24-hour
- change in urine THA content from baseline to Day 56, median ([1]; 4 mg once daily, n=10): −61.00 24 μg/24-hour
- urine tetrahydroaldosterone (THA) content, mean [1, 3]: 78.90 24 μg/24-hour
- urine tetrahydroaldosterone (THA) content, median [1, 3]: 80.00 24 μg/24-hour
- urine tetrahydroaldosterone (THA) content, mean ([1]; 4 mg once daily, n=10, Day 56): 12.00 24 μg/24-hour
- urine tetrahydroaldosterone (THA) content, median ([1]; 4 mg once daily, n=10, Day 56): 11.50 24 μg/24-hour
- change in urine THA content from baseline to Day 56, mean ([1]; 8 mg once daily, n=12): −63.00 24 μg/24-hour
- change in urine THA content from baseline to Day 56, median ([1]; 8 mg once daily, n=12): −50.00 24 μg/24-hour
- urine tetrahydroaldosterone (THA) content, mean [1, 4]: 71.67 24 μg/24-hour
- urine tetrahydroaldosterone (THA) content, median [1, 4]: 59.50 24 μg/24-hour
- urine tetrahydroaldosterone (THA) content, mean ([1]; 8 mg once daily, n=12, Day 56): 8.67 24 μg/24-hour
- urine tetrahydroaldosterone (THA) content, median ([1]; 8 mg once daily, n=12, Day 56): 5.00 24 μg/24-hour
- change in urine THA content from baseline to Day 56, mean ([1]; 12 mg once daily, n=13): −58.31 24 μg/24-hour
- change in urine THA content from baseline to Day 56, median ([1]; 12 mg once daily, n=13): −66.00 24 μg/24-hour
- urine tetrahydroaldosterone (THA) content, mean [1, 5]: 67.38 24 μg/24-hour
- urine tetrahydroaldosterone (THA) content, median [1, 5]: 69.00 24 μg/24-hour
- urine tetrahydroaldosterone (THA) content, mean ([1]; 12 mg once daily, n=13, Day 56): 9.08 24 μg/24-hour
- urine tetrahydroaldosterone (THA) content, median ([1]; 12 mg once daily, n=13, Day 56): 5.00 24 μg/24-hour
- effect on urinary tetrahydroaldosterone content ([1]; all three doses, 24-hour urine at end of active treatment vs baseline): significant reductions (p<0.0001) in tetrahydroaldosterone (THA) content
- urine aldosterone content, mean ([1]; baseline urine aldosterone 10-50 μg/24-hour, 4 mg QD, Day 1 (baseline)): 26 μg/24-hour
- urine aldosterone content, mean ([1]; baseline urine aldosterone 10-50 μg/24-hour, 4 mg QD, Day 56): 6 μg/24-hour
- urine aldosterone content, mean ([1]; baseline urine aldosterone 10-50 μg/24-hour, 8 mg QD, Day 1 (baseline)): 33 μg/24-hour
- urine aldosterone content, mean ([1]; baseline urine aldosterone 10-50 μg/24-hour, 8 mg QD, Day 56): 8 μg/24-hour
- urine aldosterone content, mean ([1]; baseline urine aldosterone 10-50 μg/24-hour, 12 mg QD, Day 1 (baseline)): 29 μg/24-hour
- urine aldosterone content, mean ([1]; baseline urine aldosterone 10-50 μg/24-hour, 12 mg QD, Day 56): 3 μg/24-hour
- urine aldosterone content, mean ([1]; baseline urine aldosterone 50-100 μg/24-hour, 4 mg QD, Day 1 (baseline)): 74 μg/24-hour
- urine aldosterone content, mean ([1]; baseline urine aldosterone 50-100 μg/24-hour, 4 mg QD, Day 56): 15 μg/24-hour
- urine aldosterone content, mean ([1]; baseline urine aldosterone 50-100 μg/24-hour, 8 mg QD, Day 1 (baseline)): 69 μg/24-hour
- urine aldosterone content, mean ([1]; baseline urine aldosterone 50-100 μg/24-hour, 8 mg QD, Day 56): 5 μg/24-hour
- urine aldosterone content, mean ([1]; baseline urine aldosterone 50-100 μg/24-hour, 12 mg QD, Day 1 (baseline)): 68 μg/24-hour
- urine aldosterone content, mean ([1]; baseline urine aldosterone 50-100 μg/24-hour, 12 mg QD, Day 56): 12 μg/24-hour
- urine aldosterone content, mean ([1]; baseline urine aldosterone 100-250 μg/24-hour, 4 mg QD, Day 1 (baseline)): 123 μg/24-hour
- urine aldosterone content, mean ([1]; baseline urine aldosterone 100-250 μg/24-hour, 4 mg QD, Day 56): 13 μg/24-hour
- urine aldosterone content, mean ([1]; baseline urine aldosterone 100-250 μg/24-hour, 8 mg QD, Day 1 (baseline)): 69 μg/24-hour
- urine aldosterone content, mean ([1]; baseline urine aldosterone 100-250 μg/24-hour, 8 mg QD, Day 56): 5 μg/24-hour
- urine aldosterone content, mean ([1]; baseline urine aldosterone 100-250 μg/24-hour, 12 mg QD, Day 1 (baseline)): 68 μg/24-hour
- urine aldosterone content, mean ([1]; baseline urine aldosterone 100-250 μg/24-hour, 12 mg QD, Day 56): 12 μg/24-hour
- plasma potassium, mean [2, 3]: 3.36 nmol/L
- plasma potassium, median [2, 3]: 3.35 nmol/L
- plasma potassium, mean ([2]; 4 mg once daily, n=10, Day 14): 4.27 nmol/L
- plasma potassium, median ([2]; 4 mg once daily, n=10, Day 14): 4.35 nmol/L
- plasma potassium, mean ([2]; 4 mg once daily, n=10, Day 28): 3.85 nmol/L
- plasma potassium, median ([2]; 4 mg once daily, n=10, Day 28): 3.85 nmol/L
- plasma potassium, mean ([2]; 4 mg once daily, n=10, Day 42): 4.07 nmol/L
- plasma potassium, median ([2]; 4 mg once daily, n=10, Day 42): 4.15 nmol/L
- plasma potassium, mean ([2]; 4 mg once daily, n=10, Day 56): 4.10 nmol/L
- plasma potassium, median ([2]; 4 mg once daily, n=10, Day 56): 4.20 nmol/L
- plasma potassium, mean [2, 6]: 3.58 nmol/L
- plasma potassium, median [2, 6]: 3.60 nmol/L
- plasma potassium, mean [2, 7]: 3.55 nmol/L
- plasma potassium, median [2, 7]: 3.50 nmol/L
- plasma potassium, mean ([2]; 8 mg once daily, n=11, Day 14): 4.32 nmol/L
- plasma potassium, median ([2]; 8 mg once daily, n=11, Day 14): 4.30 nmol/L
- plasma potassium, mean ([2]; 8 mg once daily, n=11, Day 28): 4.04 nmol/L
- plasma potassium, median ([2]; 8 mg once daily, n=11, Day 28): 4.00 nmol/L
- plasma potassium, mean ([2]; 8 mg once daily, n=11, Day 42): 3.99 nmol/L
- plasma potassium, median ([2]; 8 mg once daily, n=11, Day 42): 3.90 nmol/L
- plasma potassium, mean ([2]; 8 mg once daily, n=11, Day 56): 4.10 nmol/L
- plasma potassium, median ([2]; 8 mg once daily, n=11, Day 56): 4.10 nmol/L
- plasma potassium, mean [2, 8]: 3.76 nmol/L
- plasma potassium, median [2, 8]: 3.80 nmol/L
- plasma potassium upon drug withdrawal ([2]; Day 70, after 14-day placebo withdrawal): potassium values returned towards baseline levels
- plasma potassium concentration, mean ([2]; 4 mg QD, Day 1 (baseline)): 3.1 mmol/L
- plasma potassium concentration, mean ([2]; 4 mg QD, Day 14): 4.1 mmol/L
- plasma potassium concentration, mean ([2]; 4 mg QD, Day 28): 3.8 mmol/L
- plasma potassium concentration, mean ([2]; 4 mg QD, Day 42): 3.9 mmol/L
- plasma potassium concentration, mean ([2]; 4 mg QD, Day 56): 4.0 mmol/L
- plasma potassium concentration, mean ([2]; 4 mg QD, Day 70 (placebo withdrawal)): 3.3 mmol/L
- plasma potassium concentration, mean ([2]; 8 mg QD, Day 1 (baseline)): 3.3 mmol/L
- plasma potassium concentration, mean ([2]; 8 mg QD, Day 14): 4.2 mmol/L
- plasma potassium concentration, mean ([2]; 8 mg QD, Day 28): 3.9 mmol/L

Source: patent publication US20260124184A1, “ONCE DAILY ALDOSTERONE SYNTHASE INHIBITOR (R)-(+)-5-(P-CYANOPHENYL)-5,6,7,8-TETRAHYDROIMIDAZO[L,5-A]PYRIDINE” (priority 2022, published 2026)
